Drawing on patent US12383533B2 (Frost Biologic, Inc., priority 2014, dated 2025), this text covers percent inhibition of cell viability for 17 compounds.

What all share (type): cell-based
The test system of one assay is A2780 cells. Nature of the assay: Cell Viability Assay (ATPlite 1step), A2780. To be noted: Homo sapiens, 72 hours; for percent inhibition of cell viability at 4 µM: A2780, 4 uM compound, read-out: Cell Viability % inhibition A2780 (4 uM Cpd); for percent inhibition of cell viability at 20 µM: A2780, 20 uM compound, read-out: Cell Viability % inhibition A2780 (20 uM Cpd). How it is done: (§1) Cell Viability Assay Protocol
(§2) Cells were trypsinized, counted, and re-seeded into a 384-well tissue culture plate at 1000 cells per well in […] media. Cells were incubated at 37° C. in an atmosphere of 5% CO2 for 24 hours. Experimental compounds, initially dissolved in DMSO and diluted further in media were added to the wells and incubated for 72 hours. Cell viability was measured using the ATPlite 1step Luminescence Detection Assay system (Perkin Elmer) as described in the Assay kit instructions.
(§3) Cell Culture Lines and Media: (1) A2780 cells were cultured in RPMI media with 10% FBS and 1% antibiotics. Cells were typically split every 3-5 days at a 1:10 dilution; (2) PC3 cells were cultured in RPMI media with 10% FBS and 1% antibiotics. Cells were typically split every 3-5 days at a 1:4 dilution; (3) MCF-7 cells were grown in K-12F media with 10% FBS and 1% antibiotics. Cells were typically split every 3-5 days at a 1:10 dilution.
In general terms: Cellular ATP, detected with luciferase, serves as a proxy for viable cell number.

The next assay deals with MCF-7 cells. The experiment in a line: Cell Viability Assay (ATPlite 1step), MCF-7. To be noted: Homo sapiens, MCF7, 72 hours; for percent inhibition of cell viability at 4 µM: MCF-7, 4 uM compound, read-out: Cell Viability % inhibition MCF-7 (4 uM Cpd); for percent inhibition of cell viability at 20 µM: MCF-7, 20 uM compound, read-out: Cell Viability % inhibition MCF-7 (20 uM Cpd). How it is done:
as §1, §2, §3

The subject of a further assay is PC3 cells. The experiment in a line: Cell Viability Assay (ATPlite 1step), PC3. To be noted: Homo sapiens, PC-3, 72 hours; for percent inhibition of cell viability at 4 µM: PC3, 4 uM compound, read-out: Cell Viability % inhibition PC3 (4 uM Cpd); for percent inhibition of cell viability at 20 µM: PC3, 20 uM compound, read-out: Cell Viability % inhibition PC3 (20 uM Cpd). How it is done: as §1, §2, §3

For `O=C(Nc1ccc(-c2cccnc2)cn1)c1cncnc1` [Compound 14, N-(3,3′-bipyridin-6-yl)pyrimidine-5-carboxamide], the percent inhibition of cell viability at 4 µM with A2780 cells was 51.2%; in the assay on MCF-7 cells, 19.1%; in the assay on PC3 cells, 23.9%. The results for the percent inhibition of cell viability at 20 µM with A2780 cells, with MCF-7 cells and in the assay with PC3 cells were 71.4%, 30.3% and 43.3%, respectively.

In the case of `O=C(Nc1ccc(-c2ccccn2)cn1)c1cncnc1` [Compound 15, N-(3,2′-bipyridin-6-yl)pyrimidine-5-carboxamide], the percent inhibition of cell viability at 4 µM worked out at 68.8% with A2780 cells, 34.5% with MCF-7 cells and 40.8% in the assay with PC3 cells. For the same compound, the percent inhibition of cell viability at 20 µM turned out to be 73.4% in the assay on A2780 cells, 25.6% with MCF-7 cells and 48.2% in the assay with PC3 cells.

With `CNC(=O)c1cccc(-c2ccc(NC(=O)c3cncnc3)nc2)c1` [Compound 17, N-{5-[3-(methylcarbamoyl)phenyl]pyridin-2-yl}pyrimidine-5-carboxamide], the percent inhibition of cell viability at 4 µM came to 84.5% in the assay on A2780 cells, 56.3% in the assay with MCF-7 cells and 62.8% in the assay on PC3 cells. Besides, the percent inhibition of cell viability at 20 µM in the assay on A2780 cells is 91.7%; with MCF-7 cells it was 75.5%; in the assay on PC3 cells, 81.7%.

For `Nc1ncc(C(=O)Nc2ccc(-c3ccccc3)cn2)cn1` [Compound 9, 2-amino-N-(5-phenylpyridin-2-yl)pyrimidine-5-carboxamide], the percent inhibition of cell viability at 4 µM in the assay on A2780 cells was 92.5%; in the assay with MCF-7 cells, 70.9%; in the assay with PC3 cells, 70.7%. Besides, the percent inhibition of cell viability at 20 µM in the assay on A2780 cells is 90.6%; in the assay with MCF-7 cells, 75.5%; in the assay on PC3 cells, 76.7%.

For `Cc1ncc(C(=O)Nc2ccc(-c3csc(C)c3)cn2)cn1` [Compound 62, 2-methyl-N-[5-(5-methylthiophen-3-yl)pyridin-2-yl]pyrimidine-5-carboxamide], the percent inhibition of cell viability at 4 µM in the assay on A2780 cells worked out at 85.2%; in the assay on MCF-7 cells it was 59.4%; in the assay with PC3 cells, 54.8%. In addition, the percent inhibition of cell viability at 20 µM with A2780 cells turned out to be 89.9%; in the assay on MCF-7 cells, 67%; in the assay with PC3 cells it was 65.1%.

`Cc1ncc(C(=O)Nc2ncc(-c3cc(Cl)cc(N4CCNCC4)c3)cc2F)cn1` [Compound 54, N-{5-[3-chloro-5-(piperazin-1-yl)phenyl]-3-Fluoropyridin-2-yl}-2-methylpyrimidine-5-carboxamide]: the values for the percent inhibition of cell viability at 4 µM in the assay with A2780 cells, in the assay on MCF-7 cells and with PC3 cells were -6.4%, 23.8% and 0.2%, respectively. For the same compound, the percent inhibition of cell viability at 20 µM with A2780 cells was 64.6%; in the assay on MCF-7 cells, 42.6%; in the assay on PC3 cells, 34.8%.

For `Cc1ncc(C(=O)Nc2ccc(-c3cc(N4CCN(C)CC4)cc(S(=O)(=O)C4CC4)c3)c(C)n2)cn1` [Compound 50, N-{5-[3-cyclopropylsulfonyl-5-(4-methylpiperazin-1-yl)phenyl]-6-methylpyridin-2-yl}-2-methylpyrimidine-5-carboxamide], the figures for the percent inhibition of cell viability at 4 µM with A2780 cells, in the assay with MCF-7 cells and with PC3 cells were 7.3%, 10% and 39.2%, respectively. In addition, the values for the percent inhibition of cell viability at 20 µM in the assay on A2780 cells, with MCF-7 cells and with PC3 cells were 62.6%, 40.7% and 54.7%, respectively.

Take `Cc1ncc(C(=O)Nc2ccc(-c3cc(NC4CC4)cc(N4CCN(C)CC4)c3)cn2)cn1` [Compound 51, N-{5-[3-cycopropylamino-5-(4-methylpiperazin-1-yl)phenyl]pyridin-2-yl}-2-methylpyrimidine-5-carboxamide]: the results for the percent inhibition of cell viability at 4 µM in the assay with A2780 cells, in the assay on MCF-7 cells and with PC3 cells were 6.8%, 22.9% and 17.3%, respectively. Moreover, the percent inhibition of cell viability at 20 µM with A2780 cells is 76%; in the assay with MCF-7 cells, 49.5%; in the assay on PC3 cells, 65.7%.

On to `Cc1ncc(C(=O)Nc2ccc(-c3cc(Cl)cc(N4CCN(C)CC4)c3)cn2)cn1` [Compound 47, N-{5-[3-chloro-5-(4-methylpiperazin-1-yl)phenyl]pyridin-2-yl}-2-methylpyrimidine-5-carboxamide], for which the values for the percent inhibition of cell viability at 4 µM in the assay with A2780 cells, in the assay on MCF-7 cells and in the assay with PC3 cells were 88.7%, 40.6% and 63.2%, respectively. Besides, the percent inhibition of cell viability at 20 µM came out at 95.5% with A2780 cells, 64.6% with MCF-7 cells and 78.6% in the assay on PC3 cells.

Turning to `Cc1ncc(C(=O)Nc2ccc(-c3cc(NC4CC4)cc(N4CCN(C)CC4)c3)c(C)n2)cn1` [Compound 52, N-{5-[3-cyclopropylamino-5-(4-methylpiperazin-1-yl)phenyl]-6-methylpyridin-2-yl}-2-methylpyrimidine-5-carboxamide], the percent inhibition of cell viability at 4 µM is 8% in the assay with A2780 cells, -1.6% with MCF-7 cells and 35% in the assay with PC3 cells. The percent inhibition of cell viability at 20 µM in the assay with A2780 cells stood at 69.5%; with MCF-7 cells it was 22.2%; in the assay with PC3 cells, 52.5%.

`O=C(Nc1ccc(-c2ccco2)cn1)c1cncnc1` [Compound 20, N-[5-(furan-2-yl)pyridin-2-yl]pyrimidine-5-carboxamide]: the values for the percent inhibition of cell viability at 4 µM with A2780 cells, in the assay with MCF-7 cells and in the assay on PC3 cells were 84%, 56.3% and 59.9%, respectively. Also, the percent inhibition of cell viability at 20 µM was 91.1% in the assay on A2780 cells, 61.2% in the assay on MCF-7 cells and 69.4% in the assay with PC3 cells.

As for `O=C(Nc1ccc(-c2ccoc2)cn1)c1cncnc1` [Compound 19, N-[5-(furan-3-yl)pyridin-2-yl]pyrimidine-5-carboxamide], the percent inhibition of cell viability at 4 µM in the assay on A2780 cells was 83.2%; in the assay on MCF-7 cells, 56.4%; in the assay on PC3 cells, 62.2%. In addition, the percent inhibition of cell viability at 20 µM in the assay with A2780 cells worked out at 91.8%; with MCF-7 cells it was 69.6%; with PC3 cells, 75.2%.

As for `Cc1ncc(C(=O)Nc2ccc(-c3cc(Cl)cc(N4CCN(C)CC4)c3)c(C)n2)cn1` [Compound 48, N-{5-[3-chloro-5-(4-methylpiperazin-1-yl)phenyl]-6-methylpyridin-2-yl}-2-methylpyrimidine-5-carboxamide], the percent inhibition of cell viability at 4 µM in the assay with A2780 cells stood at 79.2%; with MCF-7 cells, 36.5%; in the assay on PC3 cells, 72%. Besides, the percent inhibition of cell viability at 20 µM was 88.8% in the assay on A2780 cells, 47.8% in the assay with MCF-7 cells and 67% with PC3 cells.

Turning to `O=C(Nc1ncc(-c2ccccc2)cn1)c1cncnc1` [Compound 12, N-(5-phenylpyrimidin-2-yl)pyrimidine-5-carboxamide], the percent inhibition of cell viability at 4 µM was determined as 82.7% in the assay with A2780 cells, 53.7% in the assay with MCF-7 cells and 59.7% in the assay on PC3 cells. In addition, the percent inhibition of cell viability at 20 µM worked out at 91.3% with A2780 cells, 69.8% with MCF-7 cells and 69.2% with PC3 cells.

Regarding `Cc1ncc(C(=O)Nc2ccc(-c3cc(C4CC4)cc(N4CCN(C)CC4)c3)cn2)cn1` [Compound 53], the percent inhibition of cell viability at 4 µM in the assay with A2780 cells stood at 15.1%; in the assay with MCF-7 cells it was 11.3%; in the assay with PC3 cells, 12.3%. Moreover, the percent inhibition of cell viability at 20 µM in the assay on A2780 cells stood at 74.8%; in the assay with MCF-7 cells it was 39.6%; with PC3 cells it was 67.1%.

For the compound `O=C(Nc1ccc(-c2ccncc2)cn1)c1cncnc1` [Compound 13, N-(3,4′-bipyridin-6-yl)pyrimidine-5-carboxamide], the results for the percent inhibition of cell viability at 4 µM in the assay on A2780 cells, in the assay on MCF-7 cells and in the assay on PC3 cells were 9.3%, 4.5% and 19.2%, respectively. Also, the percent inhibition of cell viability at 20 µM in the assay on A2780 cells stood at 47.2%; in the assay on MCF-7 cells it was 0.2%; in the assay with PC3 cells it was 17.5%.

Consider `O=C(Nc1ccc(-c2ccccc2Cl)cn1)c1cncnc1` [Compound 4, N-[5-(2-chlorophenyl)pyridin-2-yl]pyrimidine-5-carboxamide], for which, in the assay with A2780 cells, the percent inhibition of cell viability at 4 µM was found to be 79.7% and the percent inhibition of cell viability at 20 µM worked out at 87.5%. In the assay on PC3 cells, the percent inhibition of cell viability at 4 µM came out at 36% and the percent inhibition of cell viability at 20 µM was 44.2%.
